Among the data in patent US8299111B2, “Compounds which modulate the CB2 receptor” (Boehringer Ingelheim International GmbH, priority 2006, dated 2012) are agonistic activity values, retold here.

SMILES strings stand for the structures.

T1 sequence (P34972 whole entry): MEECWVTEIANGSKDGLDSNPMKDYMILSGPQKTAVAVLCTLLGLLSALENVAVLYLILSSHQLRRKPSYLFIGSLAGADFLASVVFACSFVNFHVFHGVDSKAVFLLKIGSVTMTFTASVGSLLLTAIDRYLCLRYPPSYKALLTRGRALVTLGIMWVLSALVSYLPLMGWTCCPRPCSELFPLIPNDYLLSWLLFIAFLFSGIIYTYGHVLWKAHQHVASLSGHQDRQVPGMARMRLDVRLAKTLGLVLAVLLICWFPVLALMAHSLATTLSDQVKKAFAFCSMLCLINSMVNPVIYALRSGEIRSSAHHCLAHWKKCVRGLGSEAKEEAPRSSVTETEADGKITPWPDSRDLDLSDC

This experiment concerns the target T1, human CB2R (Homo sapiens, UniProt P34972).
T1 construct: host or cells: CHO cells
In words: CB2R mediated modulation of cAMP synthesis. It counts as cell-based. Particulars: found through the use of the above described assays (binding and cAMP); CHO cells expressing human CB2R, forskolin-stimulated cAMP. In short, it runs like this: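 EC50 values reflect inhibition of cAMP made in response to 10 uM forskolin (with 1 mM IBMX, 0.25% BSA) over 30 min at 37 °C in human CB2R-expressing CHO cells. The window runs from forskolin alone to 1 uM CP55940; curves fitted with a four-parameter logistic model.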
For the compound `Cn1nc(C(C)(C)C)cc1NC(=O)C(C)(C)S(=O)(=O)c1ccc(Cl)cc1F` [N-(5-tert-Butyl-2-methyl-2H-pyrazol-3-yl)-2-(4-chloro-2-fluoro-benzenesulfonyl)-2-methyl-propionamide], the agonistic activity entry is “agonistic activity”.

In the case of `CC(C)(C)c1cc(NC(=O)C(C)(C)S(=O)(=O)c2ccccn2)no1` [N-(5-tert-Butyl-isoxazol-3-yl)-2-methyl-2-(pyridine-2-sulfonyl)-propionamide], the agonistic activity result is “agonistic activity”.

Take `CC(C)(C(=O)Nc1ccc(Oc2ccccc2)nc1)S(=O)(=O)c1ccc(Cl)cc1` [2-(4-Chloro-benzenesulfonyl)-2-methyl-N-(6-phenoxy-pyridin-3-yl)-propionamide]: the agonistic activity entry was “agonistic activity”.

As for `CC(C)(C)c1ccc(NC(=O)C(C)(C)S(=O)(=O)c2ccc(C(F)(F)F)nc2)cc1` [N-(4-tert-butylphenyl)-2-methyl-2-{[6-(trifluoromethyl)pyridin-3-yl]sulfonyl}propanamide], the agonistic activity entry is “agonistic activity”.

Regarding `CC(C)C(C(=O)Nc1cc(C(C)(C)C)on1)S(=O)(=O)c1ccc(C(F)(F)F)cn1` (stereo not drawn) [N-(5-tert-Butyl-isoxazol-3-yl)-3-methyl-2-(5-trifluoromethyl-pyridine-2-sulfonyl)-butyramide], the agonistic activity result was “agonistic activity”.

With `CC(C)(C(=O)Nc1nc(-c2ccccc2)cs1)S(=O)(=O)c1ccc(C(F)(F)F)nc1` [2-methyl-N-(4-phenyl-1,3-thiazol-2-yl)-2-{[6-(trifluoromethyl)pyridin-3-yl]sulfonyl}propanamide], the agonistic activity entry is listed as “agonistic activity”.

Turning to `COc1ccc(S(=O)(=O)C(C)(C)C(=O)Nc2cc(C(C)(C)C)on2)cc1F` [N-(5-tert-Butyl-isoxazol-3-yl)-2-(3-fluoro-4-methoxy-benzenesulfonyl)-2-methyl-propionamide], the agonistic activity entry is “agonistic activity”.

For `Cc1ccccc1S(=O)(=O)C(C)(C)C(=O)Nc1nc(C)c(C(C)(C)C)s1` [N-(5-tert-Butyl-4-methyl-thiazol-2-yl)-2-methyl-2-(toluene-2-sulfonyl)-propionamide], the agonistic activity entry was “agonistic activity”.

Turning to `CC(C)(C(=O)Nc1cccc(C(F)(F)F)c1)S(=O)(=O)c1ccc(Cl)cc1F` [2-[(4-chloro-2-fluorophenyl)sulfonyl]-2-methyl-N-[3-(trifluoromethyl)phenyl]propanamide], the agonistic activity entry was “agonistic activity”.

For `CC(C)(C)c1cnc(NC(=O)C2(S(=O)(=O)c3ccc(Cl)cc3)CCC2)s1` [1-(4-Chloro-benzenesulfonyl)-cyclobutanecarboxylic acid (5-tert-butyl-thiazol-2-yl)-amide], the agonistic activity result is listed as “agonistic activity”.

In the case of `CC(C)(C)Cc1cc(NC(=O)C(C)(C)S(=O)(=O)c2ccc(Cl)cc2F)on1` [2-[(4-chloro-2-fluorophenyl)sulfonyl]-N-[3-(2,2-dimethylpropyl)isoxazol-5-yl]-2-methylpropanamide], the agonistic activity result was “agonistic activity”.

In the case of `CC(C)(C(=O)Nc1nc2ccccc2s1)S(=O)(=O)c1ccc(Cl)cc1F` [N-1,3-benzothiazol-2-yl-2-[(4-chloro-2-fluorophenyl)sulfonyl]-2-methylpropanamide], the agonistic activity result is listed as “agonistic activity”.

For the compound `CC(C)(C(=O)Nc1nc2ccccc2o1)S(=O)(=O)c1ccc(Cl)cc1` [N-Benzooxazol-2-yl-2-(4-chloro-benzenesulfonyl)-2-methyl-propionamide], the agonistic activity result was “agonistic activity”.

Regarding `Cc1ccc(S(=O)(=O)C(C)(C)C(=O)Nc2cc(C(C)(C)C)nn2C)c(F)c1` [N-(5-tert-Butyl-2-methyl-2H-pyrazol-3-yl)-2-(2-fluoro-4-methyl-benzenesulfonyl)-2-methyl-propionamide], the agonistic activity entry is listed as “agonistic activity”.

For `COc1ccc(S(=O)(=O)C(C)(C)C(=O)Nc2cccc(C(F)(F)F)n2)cc1` [2-[(4-methoxyphenyl)sulfonyl]-2-methyl-N-[6-(trifluoromethyl)pyridin-2-yl]propanamide], the agonistic activity entry is on record as “agonistic activity”.

Take `Cc1nc(NC(=O)C(C)(C)S(=O)(=O)c2cccc(F)c2)sc1C(C)(C)C` [N-(5-tert-Butyl-4-methyl-thiazol-2-yl)-2-(3-fluoro-benzenesulfonyl)-2-methyl-propionamide]: the agonistic activity entry is recorded as “agonistic activity”.

Regarding `CC(C)(C(=O)Nc1nc2ccccc2s1)S(=O)(=O)c1ccc(C(F)(F)F)nc1` [N-1,3-benzothiazol-2-yl-2-methyl-2-{[6-(trifluoromethyl)pyridin-3-yl]sulfonyl}propanamide], the agonistic activity result was “agonistic activity”.

On to `CCCc1cc(NC(=O)C(C)(C)S(=O)(=O)c2ccc(S(C)(=O)=O)cc2)on1` [2-methyl-2-{[4-(methylsulfonyl)phenyl]sulfonyl}-N-(3-propylisoxazol-5-yl)propanamide], for which the agonistic activity result is “agonistic activity”.

For `COc1ccc(S(=O)(=O)C(C)(C)C(=O)Nc2nc(-c3ccc(Cl)cc3)cs2)cc1` [N-[4-(4-Chloro-phenyl)-thiazol-2-yl]-2-(4-methoxy-benzenesulfonyl)-2-methyl-propionamide], the agonistic activity entry is on record as “agonistic activity”.

As to `CC(C)(C)c1csc(NC(=O)C2(S(=O)(=O)c3ccc(C(F)(F)F)cc3)CCOCC2)n1` [4-(4-Trifluoromethyl-benzenesulfonyl)-tetrahydro-pyran-4-carboxylic acid (4-tert-butyl-thiazol-2-yl)-amide], the agonistic activity result was “agonistic activity”.

Turning to `CC(C)(C(=O)Nc1ccc(C(F)(F)F)cn1)S(=O)(=O)c1ccccc1` [2-Benzenesulfonyl-2-methyl-N-(5-trifluoromethyl-pyridin-2-yl)-propionamide], the agonistic activity entry is “agonistic activity”.

As for `CC(C)(C)Cc1cc(NC(=O)C(C)(C)S(=O)(=O)c2ccc(F)cc2F)on1` [2-[(2,4-difluorophenyl)sulfonyl]-N-[3-(2,2-dimethylpropyl)isoxazol-5-yl]-2-methylpropanamide], the agonistic activity entry is reported as “agonistic activity”.

As to `CC(C)(C)c1ccc(S(=O)(=O)C(C)(C)C(=O)Nc2cc(C(C)(C)C)on2)cc1` [2-(4-tert-Butyl-benzenesulfonyl)-N-(5-tert-butyl-isoxazol-3-yl)-2-methyl-propionamide], the agonistic activity entry is on record as “agonistic activity”.

For `CC(C)(C(=O)Nc1cccc(C(F)(F)F)n1)S(=O)(=O)c1ccccc1` [2-Benzenesulfonyl-2-methyl-N-(6-trifluoromethyl-pyridin-2-yl)-propionamide], the agonistic activity result was “agonistic activity”.

As for `CC(C)(C(=O)Nc1cnc2ccccc2c1)S(=O)(=O)c1ccc(F)cc1F` [2-(2,4-Difluoro-benzenesulfonyl)-2-methyl-N-quinolin-3-yl-propionamide], the agonistic activity entry is given as “agonistic activity”.

For the compound `Cc1cccc(NC(=O)C(C)(C)S(=O)(=O)c2ccc(Cl)cc2)n1` [2-(4-Chloro-benzenesulfonyl)-2-methyl-N-(6-methyl-pyridin-2-yl)-propionamide], the agonistic activity entry is given as “agonistic activity”.

Regarding `Cc1ccc(S(=O)(=O)C(C)(C)C(=O)Nc2nc(-c3ccc(Cl)cc3)cs2)cc1` [N-[4-(4-Chloro-phenyl)-thiazol-2-yl]-2-methyl-2-(toluene-4-sulfonyl)-propionamide], the agonistic activity result is “agonistic activity”.
